Measured values: patent US5622839A (ZymoGenetics, Inc., priority 1995, dated 1997)

What was measured:
[1] = target: T1, human calcitonin receptor (Homo sapiens, UniProt P30988); test: Calcitonin competition binding assay with cloned human calcitonin receptor (Hollex1, Hollex2); conditions: for Results (bound 125I calcitonin): 125I calcitonin […] 10^-2 nM
T1 construct: Hollex encoded a protein of 474 amino acids; expressed in transfected cells; host or cells: BHK 570 / BHK/KZ10-20-48 (baby hamster kidney) stably transfected with pHollex
T1 sequence (P30988 25-474): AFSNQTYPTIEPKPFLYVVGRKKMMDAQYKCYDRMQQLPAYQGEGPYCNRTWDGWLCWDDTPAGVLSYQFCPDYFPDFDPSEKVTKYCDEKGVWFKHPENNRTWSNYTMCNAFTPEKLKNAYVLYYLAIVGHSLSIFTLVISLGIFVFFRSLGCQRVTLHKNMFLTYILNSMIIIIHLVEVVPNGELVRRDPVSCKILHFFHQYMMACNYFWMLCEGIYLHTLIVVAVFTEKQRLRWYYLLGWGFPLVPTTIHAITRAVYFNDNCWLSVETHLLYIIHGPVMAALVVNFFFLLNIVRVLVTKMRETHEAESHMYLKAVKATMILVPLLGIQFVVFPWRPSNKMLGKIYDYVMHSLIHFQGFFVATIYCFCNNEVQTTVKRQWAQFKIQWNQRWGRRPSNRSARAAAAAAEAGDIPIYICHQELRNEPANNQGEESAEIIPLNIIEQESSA
Protocol: Clones Hollex1 and Hollex2 were tested for receptor-mediated ability to bind calcitonin using a competition assay. T47D cells were used as a positive control and BHK cells transfected with Zem1698 were used as a negative control.
The cells were rinsed in binding medium (500 ml RPMI 1640 (Sigma, St. Louis, Mo.), 1 mg/ml bacitracin (Sigma), and 1 mg/ml BSA (Boehringer Mannheim)) to remove the serum. […] The cells were incubated for 1.5 hours at room temperature, and then rinsed 3 times with PBS to remove unincorporated radioactivity. Five hundred microliters of 0.25N NaOH was added to each well to solubilize the cells. The samples were collected from each well and CPMs were counted on a gamma counter.

[2] = target: T1, human calcitonin receptor; test: [Ca2+]i response of BHK cells expressing cloned calcitonin receptor to calcitonin and extracellular calcium (fura-2); assay type: cell-based; conditions: about 700,000 calcitonin receptors/cell
Protocol: BHK cells expressing the cloned calcitonin receptor were assayed to determine their response to extracellular calcium. Cells were washed three times with a buffer (140 mM NaCl, 5 mM KCl, 0.5 mM MgCl2, 0.5 mM CaCl2 (concentration varied in some experiments), 10 mM glucose, 10 mM HEPES, pH 7.4) made using high purity salts (Aldrich, Milwaukee, Wis.) and sterile water (Baxter, McGaw Park, Ill.). Cells were loaded with fura-2 AM (Molecular Probes Inc.) (10 μg/ml) for 30 minutes essentially as described above, then washed an additional three times. Slides were mounted at room temperature on an inverted microscope (EPIPHOT, Nikon), and a field of cells (typically 20-30 cells) was located using a 40× Nikon fluor objective. The ratio of fura-2 emission at excitation wavelengths of 340 and 380 nm was recorded every 5 seconds. Individual cells were analyzed on a computer workstation (Sun Microsystems) using a software system designed for ratio imaging (Inovision). The concentration of calcium chloride in buffers was determined by comparison to calcium standards on a calcium analyzer (Nova Biomedical Corp. Waltham, Mass.). All experiments were reproduced three to eight times. Fura-2 ratio 340 nm to 380 nm values (R) were converted to [Ca^2+ ]i concentrations after calibration of the instrument using the formula: calcium (nm)=2240[R-0.3)/(20-R)]. Basal [Ca^2+ ]i concentrations were typically 80-150 nm. The peak fura-2 ratios 340/380 of individual cells exposed to 20 nm salmon calcitonin followed by 25 mM calcium chloride were averaged for some experiments and converted to [Ca^2+ ]i concentrations. Standard error was calculated at a 99% level using a Z score of 2.58 (n>30).

[3] = target: T1, human calcitonin receptor; test: Inositol triphosphate assay in BHK 570 cells expressing pHollex; assay type: cell-based
Protocol: BHK 570 cells expressing the calcitonin receptor from pHollex or mock-transfected BHK 570 cells were plated into 24-well tissue culture dishes at about 200,000 cells per well. After 24 hours, the cells in each well were labeled by incubation in 0.5 ml of Dulbecco's Modified Eagles Medium (DMEM, JRH Biosciences, Lenexa, Kans.) containing 10% fetal calf serum and 4.0 μCi/ml of myo-(2-^3 H) inositol (specific activity=20 Ci/mmol; Amersham). At the end of a 24 hour incubation, the cells were washed with 1 ml prewarmed DMEM that had been buffered with 20 mM Hepes, pH 7.0 (Sigma Chemical Co.) containing 10 mM LiCl. The wash medium was removed by aspiration and replaced with 900 μl of fresh buffered medium. The cells were incubated for five to fifteen minutes at 37° C. After incubation, appropriate concentration of each agonist or antagonist was added to triplicate wells, and the cells were incubated for 30 minutes at 37° C.
The reaction was terminated by placing the cells on ice. Following aspiration of the media, the cells were then lysed by the addition of 1 ml of cold DMEM and 1 ml of ice-cold 10% perchloric acid. After ten minutes the cell lysates were transferred to tubes containing 500 μl of 10 mM EDTA, pH 7.0. […] Ten milliliters of OPTIFLUOR (Packard Instrument Co., Menden, Conn.) were added to each sample, and the samples were counted. […]

For salmon calcitonin, the baseline control ([1]; 200 nM unlabeled salmon calcitonin) was 27 cpm, the Kd ([1]; Hollex1) was 500 ± 200 pM and the Kd ([1]; Hollex2) was 300 ± 10 pM. The “Results (bound 125I calcitonin)” value ([1]; unlabeled salmon calcitonin 0.003 nM) was 10430 cpm, the “Results (bound 125I calcitonin)” value ([1]; unlabeled salmon calcitonin 0.01 nM) was 10278 cpm and the “Results (bound 125I calcitonin)” value ([1]; unlabeled salmon calcitonin 0.03 nM) was 10262 cpm. For the same substance, the “Results (bound 125I calcitonin)” value ([1]; unlabeled salmon calcitonin 0.1 nM) was 9711 cpm, the “Results (bound 125I calcitonin)” value ([1]; unlabeled salmon calcitonin 0.3 nM) was 8421 cpm and the “Results (bound 125I calcitonin)” value ([1]; unlabeled salmon calcitonin 1 nM) was 4132 cpm. The “Results (bound 125I calcitonin)” value ([1]; unlabeled salmon calcitonin 3 nM) was 1639 cpm, the “Results (bound 125I calcitonin)” value ([1]; unlabeled salmon calcitonin 10 nM) was 558 cpm and the “Results (bound 125I calcitonin)” value ([1]; unlabeled salmon calcitonin 30 nM) was 458 cpm. For the same substance, the “Results (bound 125I calcitonin)” value ([1]; unlabeled salmon calcitonin 50 nM) was 147 cpm, the “concentration giving maximal transient [Ca2+]i increases” value [2] was 10-20 nm and the EC50 ([3]; Hollex1, 30 min at 37° C., read-out: ED50 (inositol phosphate)) was 9500 pM. The inositol phosphate response ([3]; Hollex2) was “no response”.
